Experimental data from US20170304175A1, “COMPOSITION FOR INDUCING FACILITATION OF CELL REJUVENATION COMPRISING GENISTEIN OR EPIGALLOCATECHIN GALLATE” (AMOREPACIFIC CORPORATION, priority 2014, published 2017).

Test system: melanocytes
Assay: Observation of phenotype of melanocytes with an optical microscope
Assay type: cell-based, Human
Details: long-term exposure (1 μM in medium from passage 7 to passage 11/12), FIGS. 4A-4B
Procedure: Human primary melanocytes (Life Technologies, CA, USA) were cultured in a M-254 medium (Gibco BRL, NY, USA) supplemented with a human melanocyte growth supplement (HMGS; Gibco BRL, NY, USA) in a 5% CO2 incubator at […] on a 100-mm culture plate while replacing the medium every other day until the cells occupy 80% of the plate area and then subcultured on another 100-mm culture plate at a ratio of 1:4.
The melanocytes first placed on the 100-mm culture plate were considered as passage 1 (PA1) and subculturing was performed 11 times (PA12).
As a control group, melanocytes were subcultured to passage 11 and passage 12 without any treatment, and as a test group, the cells were subcultured under the same environment as the control group until passage 6, and then subcultured from passage 7 to passage 11 and passage 12 in a medium containing 1 μM genistein or epigallocatechin gallate (EGCG).

Row | SMILES | phenotype of melanocytes of the late cell line
1 | O=c1c(-c2ccc(O)cc2)coc2cc(O)cc(O)c12 [genistein] | recovered similarly to the cells of the early stage of subculturing
2 | O=C(O[C@@H]1Cc2c(O)cc(O)cc2O[C@@H]1c1cc(O)c(O)c(O)c1)c1cc(O)c(O)c(O)c1 [epigallocatechin gallate (EGCG), epigallocatechin gallate] | recovered similarly to the cells of the early stage of subculturing
